Assay results reported in patent US20090275667A1, “USE OF ALLICIN AS PRESERVATIVE, AS DISINFECTANT, AS ANTIMICROBIAL OR AS BIOCIDAL AGENT” (Stone Island Holdings Ltd, priority 2003, published 2009).

How the values were obtained:
Assay type in all cases: cell-based
[1] = tested on: Paenibacillus larvae subsp. pulvifaciens; test: MIC by broth microdilution, bee pathogens; details: range 1000 ppm to 0.25 ppm
Text: (§1) We tested allicia (Allisure™ Liquid) activity against several species of entomopathogenic bacteria (Paenibacillus larvae subsp. larvae, Paenibacillus larvae subsp. pulvifaciens) and fungi (Ascosphaera apis and Ascosphaera aggregata) using broth microdilution method to determine minimum inhibitory concentration (MIC) and the agar diffusion test (Kirby-Bauer) to determine zone of inhibition. Bacterial spores were isolated from the diseased honey bee larval samples. A small aliquot of heat-treated bacterial spores was suspended in 100 μl of phosphate buffered saline-pH 7.2 (PBS) and plated on semi-selective J. Agar medium, containing Nalidixic and Pipemidic acid (Alippi, A M (1995) Detection of Bacillus larvae spores in Argentinian honeys by using a semi-selective medium. Microbiologia 1995 11(3): 343-50; and Govan, V A; Allsopp, M H; Davison, S A (1999) PCR Detection Method for Rapid Identification of Paenibacillus larvae. Applied and Environmental Microbiology 65(5): 2243-2245.
(§2) The plates were incubated at 33° C. in air containing 6% CO2 and 95% RH. The initial species identification was based on morphological, biological and cultural characteristics. The bacterial culture was tested for a catalase reaction (Leboffe, M. J and Pierce, B e (1999) A photographic atlas for the microbiology laboratory. Morton Publishing Company. 254 pp). The bacterial colonies were characterized by shape, margins and color. Gram-positive stained smears (Gram-stain Reagents Kit, EMD Chemicals Inc., NJ) were examined for morphological identification of vegetative cells and spores.
(§3) DNA based PCR identification was performed to corroborate identification of the bacterial species. Bacterial cells from culture plates were added directly to 30 μl of PCR reaction. The PCR primers used in the reaction were based on the 16S RNA sequence to selectively amplify a fragment of 973 by unique to P. larvae (Govan et al., 1999). The PCR products were visualized by 0.8% agarose gel electrophoresis in TAE buffer and ethidium bromide staining. The reference strains of bacteria were used as a control in PCR reactions and were provided by the National Center for Agricultural Research, Peoria, Ill. P. l. larvae (NRRL B-3560, B-2605) and P. l. palvifaciens (NRRL B-3688, B-3685, B-3689, NRS-1687, P. alvei B383).
(§4) Positive controls contained the antibiotic Tylosin (Tylan® 50, Elanco Animal Health Inc., IN) and negative controls contained no antibiotics. […] The optical densities of cultures (OD 600) were recorded 24 h and 48 h post inoculation, depending on the growth rate of the microbial species. […] Minimum bactericidal concentration values (NBC) were determined for allicin by plating out 100 μl of bacterial cultures derived from the MIC assay. […]

[2] = tested on: Paenibacillus larvae subsp. larvae; test: MIC by broth microdilution, bee pathogens; details: range 1000 ppm to 0.25 ppm
Text: as §1, §2, §3, §4

[3] = tested on: Paenibacillus larvae subsp. pulvifaciens; test: Disk diffusion test (Kirby-Bauer), zone of inhibition; details: 6 mm paper disc containing 5 μg of tylosin
Experimental: (§5) Allicin (Allisure™ Liquid) was tested against bacterial and fungal pathogens using a standard disk diffusion method (per Norrell & Messley). The aliquots of bacterial or fungal spores (100 μl of approximately 10^8-10^9 spores/ml) were plated on Mueller-Hinton agar medium, 4.0 mm depth. The 6 mm paper discs containing 250 μg of allicin or 5 μg of tylosin (positive control) were placed in the center of each plate. Plates were incubated at 33° C. and 6% CO2 and a zone of inhibition was measured 24 h, 48 h or 76 h post inoculation depending on the microbial species. All experiments were replicated at least three times.

[4] = tested on: Paenibacillus larvae subsp. larvae; test: as above; details: 6 mm paper disc containing 5 μg of tylosin
Experimental: as §5

Ascosphaera aggregata = test: as above; details: 6 mm paper disc containing 5 μg of tylosin
Experimental: as §5

Ascosphaera apis = test: as above; details: 6 mm paper disc containing 5 μg of tylosin
Experimental: as §5

CC[C@H]1OC(=O)C[C@@H](O)[C@H](C)[C@@H](O[C@@H]2O[C@H](C)[C@@H](O[C@H]3C[C@@](C)(O)[C@@H](O)[C@H](C)O3)[C@H](N(C)C)[C@H]2O)[C@@H](CC=O)C[C@@H](C)C(=O)/C=C/C(C)=C/[C@@H]1CO[C@@H]1O[C@H](C)[C@@H](O)[C@@H](OC)[C@H]1OC [tylosin, reference compound]
MIC [1]: < 0.25 µg/mL | MIC [2]: < 0.25 µg/mL | zone of inhibition [3]: 14-16 mm | growth inhibition in agar diffusion test [4]: completely inhibited | zone of inhibition (Ascosphaera aggregata): 0.0 mm | zone of inhibition (Ascosphaera apis): 0.0 mm
